Test results reported in article PMC3006207, “Phosphorylation-Dependent Protein Interaction with Trypanosoma brucei 14-3-3 Proteins that Display Atypical Target Recognition” (PLoS ONE, 2010).
Square brackets hold non-standard residues; d marks the D form. Ends that are not written are not given here. Peptide text beside a SMILES is read from it. * marks the point of attachment. Biotin = O=C1N[C@H]2[C@H](CS[C@H]2CCCCC(=O)*)N1; pS = N[C@@H](COP(=O)(O)O)C(=O)O

What was measured:
[1] = tested on: proteins of HeLa and T. brucei PCF cell lysates; test: Far-Western blot analysis of HeLa and PCF cell lysates with 14-3-3 probes; type: binding, HeLa (human) and Trypanosoma brucei; conditions: for effect on interacting proteins, CalA (−) vs (+), with or without calcium: 1 mM CaCl2, T. brucei 14-3-3 probe 2 µg/ml, representative of three independent experiments
Method: Far-Western blot analysis of Ser/Thr phosphatase inhibitor Calyculin A (CalA) treated + and/or untreated – of HeLa and/or 29-13 PCF cell lysates was performed. HeLa cells and/or 29-13 PCF cells were lysed with SDS-gel loading buffer supplemented with 2-mercaptoethanol (Bio-Rad, Hercules, CA) and sonicated. The cell lysates equivalent to 5×10^5 HeLa cells and 1×10^7 29-13 PCF cells were applied on 4–20% SDS-PAGE (Daiichi, Japan) and transferred to nitrocellulose filters (Millipore, Bedford, MA). The filters were denatured with denaturation buffer (6M guanidine-HCl, 50 mM Tris-HCl, pH 8.0, and 1 mM dithiothreitol [DTT]). The denaturation buffer was then diluted with an equal volume of 50 mM Tris-HCl, pH 8.0 with 1 mM DTT. After 15 min of denaturation, the filters were then treated with 2x diluted denaturation buffer. The same step was repeatedly carried out eight times and then renatured filters were washed twice with TTBS (50 mM Tris-HCl, pH 7.4, 0.1% Tween 20, and 150 mM NaCl). The resultant filters were blocked with TTBS containing 4% skim milk plus 1 mM DTT. Then the filters were incubated overnight with 1 or 2 µg/ml of GST-14-3-3 probes in 4% skim milk containing the blocking solution at 4°C. The filters were washed three times with TTBS and incubated with anti-GST polyclonal antibodies (Sigma) followed by horseradish peroxidase (HRP)-labeled anti-rabbit goat IgG (Jackson Immunoresearch Laboratories, West Grove, PA).

human 14-3-3τ = target: T1, human 14-3-3τ (Homo sapiens, UniProt P27348); test: Surface plasmon resonance (BIAcore), phosphopeptide vs 14-3-3τ; type: binding; conditions: 14-3-3τ; BIAcore 2000, BIAevaluation 3.0; biotinylated peptide on streptavidin chip (220 RU); HBS-EP buffer, 20 µl/min; read-out: estimated Kd of the mode 1 phosphopeptide
T1 construct: made in house
T1 sequence (P27348 1-245): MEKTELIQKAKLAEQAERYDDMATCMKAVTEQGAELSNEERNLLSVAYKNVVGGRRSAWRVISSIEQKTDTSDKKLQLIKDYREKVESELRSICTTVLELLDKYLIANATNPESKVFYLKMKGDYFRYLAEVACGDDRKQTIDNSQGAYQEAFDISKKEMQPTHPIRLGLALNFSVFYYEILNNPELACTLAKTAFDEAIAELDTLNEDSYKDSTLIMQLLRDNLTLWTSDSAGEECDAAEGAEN
Method: The surface plasmon resonance measurement was carried out using BIAcore 2000. A resonance unit value of 220 of biotinylated phosphopeptide pSRaf 259 (biotin-MAGGGRQRSTpSTPN) (mode 1 peptide) was coupled to a streptavidin-coated sensor chip (SA5, BIAcore). In the next step, 200 nM each of purified GST-14-3-3I, GST-14-3-3II, and GST–14-3-3τ, or 500 nM each of MBP-14-3-3I, MBP-14-3-3II, and MBP-14-3-3τ in HBS-EP buffer (BIAcore) was injected at a flow rate of 20 µl/min. A resonance unit value of 296 of biotinylated mode 2 peptide (biotin-MAGGGRLYHpSLP) was also coupled to SA5 and 200 nM each of GST-14-3-3I, GST-14-3-3II and GST-14-3-3τ in HBS-EP buffer, and was injected in the same manner.

human 14-3-3ζ = test: NC-filter binding assay, human 14-3-3ζ; conditions: biotinylated peptide + streptavidine on nitrocellulose filter; GST-14-3-3ζ detected with α-GST antibodies
Method: (§1) Five µl of 1 mM biotinylated peptides, purchased from Scrum (Japan) were mixed with 15 µl of streptavidine (1 mg/ml) in the presence of 0.1% Tween20, spotted on NC-filters and dried. Filters were washed with TTBS, blocked with Protein-Free Blocking Buffer (Pierce), and then incubated with GST-14-3-3 proteins in TTBS containing 20% Protein-Free Blocking Buffer and 1 mM DTT. The filters were extensively washed four times with TTBS, and detected with anti-GST antibodies.

[2] = tested on: heterodimeric T. brucei 14-3-3I+II; test: NC-filter binding assay, heterodimeric T. brucei 14-3-3; parameters: species or system Trypanosoma brucei; conditions: biotinylated peptide + streptavidine on nitrocellulose filter, GST-14-3-3 detected with α-GST antibodies
Method: as §1

[3] = tested on: endogenous 14-3-3II (T. brucei PCF lysates); test: Peptide pull-down assay, endogenous 14-3-3II; type: binding, Trypanosoma brucei
Method: (§2) Ten µl of streptavidin agarose beads (Sigma Chemical Co., St. Louis, MO) were incubated with 10 µl of 100 µM of pRaf 259 (biotin- MAGGGRQRSTSTPN) and/or pSRaf 259 at room temperature for 30 min and the beads were washed three times with lysis buffer (150 mM NaCl, 10 mM HEPES, pH 7.5, 0.2% NP-40, 50 mM NaF, 1 mM Na3VO4 and Roche protease inhibitor tablets). Next, 1×10^9 cells of T. brucei PCF were lysed with 2 ml of the lysis buffer on ice. Insoluble proteins were pelleted and 1 ml of the supernatant was used for each peptide pull-down assay. The lysates were incubated with each bead, rotated at 4°C for 2 hrs and washed with the lysis buffer three times. Twenty µl of 2xSDS Gel loading buffer with 2-mercaptoethanol were added to the washed beads, and 5 µl of eluates were run on 10–20% SDS-PAGE. The blots were detected with α-I and/or α–II Abs as described previously.

[4] = tested on: endogenous 14-3-3I (T. brucei PCF lysates); test: Peptide pull-down assay, endogenous 14-3-3I; type: binding, Trypanosoma brucei
Method: as §2

[5] = target: T2, GST-14-3-3ζ (human 14-3-3ζ) (human, UniProt P63104 1-245); test: far-Western, overlay or dot blot; NC-filter binding assay: biotinylated peptides (1 mM) mixed with streptavidin, spotted on nitrocellulose and dried; incubated with GST-14-3-3 proteins in TTBS with 20% Protein-Free Blocking Buffer and 1 mM DTT; anti-GST detection; conditions: both partners purified
T2 construct: human 14-3-3 zeta
T2 sequence (looked up): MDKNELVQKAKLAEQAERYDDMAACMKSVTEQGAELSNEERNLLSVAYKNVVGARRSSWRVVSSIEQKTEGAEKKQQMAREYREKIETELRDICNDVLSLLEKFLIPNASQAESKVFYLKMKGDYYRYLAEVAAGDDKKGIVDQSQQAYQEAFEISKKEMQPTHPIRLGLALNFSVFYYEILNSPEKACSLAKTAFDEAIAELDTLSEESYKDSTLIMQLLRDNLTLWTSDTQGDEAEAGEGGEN

MBP-14-3-3τ = target: T3, MBP-14-3-3τ (human, UniProt P27348 1-245); test: SPR; BIAcore 2000; biotinylated phosphopeptide coupled to a streptavidin-coated chip (220 RU mode 1, 296 RU mode 2); 200 nM GST-14-3-3 or 500 nM MBP-14-3-3 proteins injected in HBS-EP at 20 µl/min; Kd by BIAevaluation 3.0; conditions: both partners purified
T3 construct: human 14-3-3 tau; source: purified
T3 sequence (looked up): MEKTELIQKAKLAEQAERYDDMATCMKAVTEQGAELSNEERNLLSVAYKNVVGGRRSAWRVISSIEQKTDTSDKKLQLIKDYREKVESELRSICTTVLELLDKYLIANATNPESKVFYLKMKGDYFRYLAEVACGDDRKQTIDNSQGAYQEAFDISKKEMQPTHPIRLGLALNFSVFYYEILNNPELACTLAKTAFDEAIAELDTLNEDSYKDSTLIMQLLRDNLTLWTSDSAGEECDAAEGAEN

[6] = target: T2, GST-14-3-3ζ (human 14-3-3ζ); test: far-Western, overlay or dot blot; conditions: both partners purified
[7] = target: T4, GST-14-3-3τ (human 14-3-3τ fused to glutathione S-transferase) (human, UniProt P27348 1-245); test: SPR; conditions: both partners purified
T4 construct: human 14-3-3 tau; also called GST-τ; source: purified
T4 sequence (looked up): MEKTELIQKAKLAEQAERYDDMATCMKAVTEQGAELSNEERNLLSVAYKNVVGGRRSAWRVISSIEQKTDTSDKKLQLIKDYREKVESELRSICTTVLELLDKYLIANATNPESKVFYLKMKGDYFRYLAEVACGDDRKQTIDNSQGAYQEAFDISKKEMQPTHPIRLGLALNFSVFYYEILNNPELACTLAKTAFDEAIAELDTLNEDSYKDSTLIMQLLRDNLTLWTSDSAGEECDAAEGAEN

[Ca+2].[Cl-].[Cl-] [CaCl2]
effect on interacting proteins, CalA (−) vs (+), with or without calcium [1]: no major difference

COC[C@@H]([C@H](O)[C@H](O)C(=O)NCC[C@H](C)c1nc(/C=C/C[C@@H]2O[C@]3(C[C@@H](O)[C@@H]2C)O[C@H]([C@H](C[C@H](O)[C@H](C)[C@H](O)[C@H](C)/C=C(C)/C(C)=C/C=C/C(C)=C\C#N)OC)[C@H](OP(=O)(O)O)C3(C)C)co1)N(C)C [calyculin A]
effect on interacting proteins, CalA (−) vs (+), with or without calcium [1]: no major difference | number and amounts of the 14-3-3τ-interacting protein upon treatment ([1]; PCF and HeLa cells, probe GST-τ): increased

CSCC[C@H](NC(=O)CCCC[C@@H]1SC[C@@H]2NC(=O)N[C@@H]21)C(=O)N[C@@H](C)C(=O)NCC(=O)NCC(=O)NCC(=O)N[C@@H](CCCNC(=N)N)C(=O)N[C@@H](CCC(N)=O)C(=O)N[C@@H](CCCNC(=N)N)C(=O)N[C@@H](CO)C(=O)N[C@H](C(=O)N[C@@H](COP(=O)(O)O)C(=O)N[C@H](C(=O)N1CCC[C@H]1C(=O)N[C@@H](CC(N)=O)C(=O)O)[C@@H](C)O)[C@@H](C)O [pSRaf259] (Biotin-MAGGGRQRST[pS]TPN-OH)
Kd (human 14-3-3τ): 220 nM

-LIEGRKQTVG [ACS, putative mode 3 synthetic phosphopeptide derived from ACS (acetyl-CoA synthetase, putative)]
interaction with spotted phosphopeptide (human 14-3-3ζ): would not interact | interaction with spotted phosphopeptide [2]: would not interact

-WLTRSRSLW [PP2c]
interaction with spotted phosphopeptide [2]: failed to show the interactions

Biotin-MAGGGRQRSTSTPN [pRaf259, c-Raf-derived peptide in which 259Ser is unphosphorylated]
peptide pull-down interaction ([3]; T. brucei PCF lysates, 5×10^8 cells/pull-down, Western blot α-II): did not interact | peptide pull-down interaction, longer exposure ([3]; T. brucei PCF lysates, Western blot α-II, longer exposure): weak interaction | amount of captured 14-3-3II, phospho- vs non-phospho-peptide beads ([3]; longer exposure): not different between phospho-(pSRaf259) and non-phospho-(pRaf259) peptide-conjugated beads | peptide pull-down interaction ([4]; T. brucei PCF lysates, 5×10^8 cells/pull-down, Western blot α-I): did not interact | recovery of 14-3-3I by peptide-conjugated beads ([4]; longer exposure): No 14-3-3I was recovered

HVSGLKRRRpSV [p31-SAP part of …pSV]
interaction with spotted phosphopeptide [2]: high-affinity

MGGGLTRSRpSL [PP2c (-W), mode 3 phosphopeptide derived from PP2c-W]
interaction with spotted phosphopeptide (human 14-3-3ζ): interacts with both phosphopeptides but with the preferential binding to the mode 3 peptide derived from p31-SAP | interaction with spotted phosphopeptide [2]: failed to show the interactions | interaction with spotted phosphopeptide ([2]; listed as MGGGLTRSRpSL): not detected

B1: c-Raf-derived phosphopeptide pSRaf259 (biotin-MAGGGRQRSTpSTPN) (peptide)
peptide: Biotin-MAGGGRQRST[pS]TPN
notes: spacer before the c-Raf stretch; human c-Raf 1 stretch around Ser-259; also called mode 1 peptide; mode 1 phosphopeptide; source: synthetic peptide
binding result [5]: binds | binding result (MBP-14-3-3τ): binds

B2: mode 2 phosphopeptide (biotin-[residues removed]pSLP) (peptide)
peptide: Biotin-MAGGGRLYH[pS]LP
modifications: not fully specified
notes: also called mode 2 peptide
binding result [6]: binds | binding result [7]: binds
